{"source": "paper PMC11053772", "about": "“Improved Chemical and Radiochemical Synthesis of Neuropeptide Y Y2 Receptor Antagonist N-Methyl-JNJ-31020028 and Preclinical Positron Emission Tomography Studies” (Pharmaceuticals, 2024)", "key": {"[1]": {"system": "Y2 receptors", "design": "method as in PMID 19953226", "details": "cited from earlier work"}, "[2]": {"assay": "In vivo PET/MRI biodistribution of the radiotracer in mice", "design": "species or system C57BL/6N mice", "details": "i.v., 30–50 min post-injection, mean ± SEM, n = 7", "experimental": "PET/MRI images of N-[^11C]Me-JNJ-31020028 and biodistribution studies were performed in healthy C57BL/6N mice. The radiotracer [^11C]2 injectable solutions were administered intravenously to the mice, previously anaesthetised, and the mice were put in the MicroPET scanner for PET imaging acquisition. The MRI acquisition was performed before injection due to the necessity of using equipment different from MicroPET.\nPET/MRI Imaging. PET/MRI acquisitions were performed at the Institute for Nuclear Sciences Applied to Health (ICNAS) animal facility. During both acquisitions, the animals (n = 7) were anaesthetised using 1.5–2% isoflurane, and vital signs, such as temperature and respiratory cycle, were monitored. The radiotracer was administered intravenously (i.v.) in a total injected activity of 12.0 ± 2.9 µCi/g. Mice were placed in a MicroPET scanner based on resistive plate chamber detectors (RPC-PET). […] Quantitative imaging processing was performed using PMOD (PMOD, v 3.6; PMOD Technologies, Zürich, Switzerland, RRID: SCR_016547). […] Standardised uptake values (SUVs) were calculated as [[total positron (β+ radioactivity) concentration in the VOI (Bq/mL)]/[total positron (β+ radioactivity) injected (Bq)/weight (g)]] […] The percentage injected dose per gram (%ID/g) was calculated through Equation (2). […]"}, "[3]": {"system": "Y2 receptor", "design": "method as in PMID 24614224", "details": "living pigs; cited from earlier work"}, "[4]": {"assay": "Ex vivo biodistribution by gamma counting one hour after i.v. injection", "format": "in vivo, C57BL/6N mice", "details": "mice, 1 h after i.v. injection", "experimental": "The ex vivo biodistribution studies were performed one hour after the intravenous injection of the [^11C]2 injectable solution. For these studies, transcardiac perfusion with saline was performed, eliminating blood traces from the organs. […] Urinary excretion also occurred, though less radioactivity was found in the urine (84.43 ± 59.41%ID/g). The small intestine (98.64 ± 25.57%ID/g) and liver (14.33 ± 6.39%ID/g) were the organs with major uptake of the radiotracer. The high uptake in the small intestine is explained by the high density of Y2 receptors that exist in this organ, while the uptake in the liver is related to the metabolization of the tracer. Moderately low uptake was found in the stomach (3.082 ± 0.7135%ID/g), large intestine (2.18 ± 0.21%ID/g) and kidneys (1.99 ± 0.49%ID/g).\nBiodistribution. In another cohort of animals (n = 5), ex vivo biodistribution (%ID/g of tissue) was performed by gamma counting through CRC®-55t well counter and CRC®-55tW radioisotope dose calibrator (Capintec, Ramsey, NJ, USA). Six regions of the brain were also isolated to characterise brain accumulation; the isolation of the specific brain regions was conducted following established protocols."}, "[5]": {"details": "mean ± SEM, n = 5, listed as [^11C]2"}}}
{"smiles": "CCN(CC)C(=O)C(c1ccccc1)N1CCN(c2ccc(NC(=O)c3ccccc3-c3cccnc3)cc2F)CC1", "note": "(stereo not shown) [JNJ-31020028, N-(4-{4-[2-(diethylamino)-2-oxo-1-phenylethyl]piperazin1-yl}-3-fluorophenyl)-2-pyridin-3-ylbenzamide]", "values": [{"measurement": "Affinity and selectivity towards the Y2 receptors", "setting": "[1]", "result": "high affinity and selectivity"}]}
{"smiles": "CCN(CC)C(=O)C(c1ccccc1)N1CCN(c2ccc(N([11CH3])C(=O)c3ccccc3-c3cccnc3)cc2F)CC1", "note": "(stereo not shown) [N-[^11C]Me-JNJ-31020028]", "values": [{"measurement": "Uptake in the brain (in vivo PET)", "setting": "[2]", "result": "0.5187 ± 0.08", "unit": "%ID/g"}, {"measurement": "Uptake in the gut (in vivo PET)", "setting": "[2]", "result": "12.57 ± 1.27", "unit": "%ID/g"}, {"measurement": "Blood–brain barrier permeation", "setting": "[3]", "result": "permeated the blood–brain barrier"}, {"measurement": "Metabolization in the bloodstream", "setting": "[3]", "result": "slow metabolization in the bloodstream"}, {"measurement": "Route of elimination", "setting": "[4]; from uptake in bile", "result": "mainly eliminated through the hepatobiliary system"}, {"measurement": "Ex vivo biodistribution, small intestine", "setting": "[4]; intestine wall, mean ± SEM, n = 5", "result": "98.64 ± 25.57", "unit": "%ID/g"}, {"measurement": "Brain ex vivo biodistribution, amygdala", "setting": "[4]; mean ± SEM, n = 5", "result": "0.9318 ± 0.08", "unit": "%ID/g"}, {"measurement": "Brain ex vivo biodistribution, cerebellum", "setting": "[4]; mean ± SEM, n = 5", "result": "0.646 ± 0.10", "unit": "%ID/g"}, {"measurement": "Brain ex vivo biodistribution, hippocampus", "setting": "[4]; mean ± SEM, n = 5", "result": "0.8976 ± 0.09", "unit": "%ID/g"}, {"measurement": "Brain ex vivo biodistribution, hypothalamus", "setting": "[4]; mean ± SEM, n = 5", "result": "1.03 ± 0.11", "unit": "%ID/g"}, {"measurement": "Brain ex vivo biodistribution, pre-frontal cortex (PFC)", "setting": "[4]; mean ± SEM, n = 5", "result": "0.636 ± 0.06", "unit": "%ID/g"}, {"measurement": "Brain ex vivo biodistribution, striatum", "setting": "[4]; mean ± SEM, n = 5", "result": "1.013 ± 0.11", "unit": "%ID/g"}, {"measurement": "Ex vivo biodistribution, blood", "setting": "[4]; mean ± SEM, n = 5", "result": 3.661, "unit": "%ID/g"}, {"measurement": "Ex vivo biodistribution, kidney", "setting": "[4]; mean ± SEM, n = 5", "result": 1.986, "unit": "%ID/g"}, {"measurement": "Ex vivo biodistribution, large intestine", "setting": "[4]; mean ± SEM, n = 5", "result": "2.18 ± 0.21", "unit": "%ID/g"}, {"measurement": "Ex vivo biodistribution, liver", "setting": "[4]; mean ± SEM, n = 5", "result": "14.33 ± 6.39", "unit": "%ID/g"}, {"measurement": "Ex vivo biodistribution, urine", "setting": "[4]; mean ± SEM, n = 5", "result": "84.43 ± 59.41", "unit": "%ID/g"}, {"measurement": "Ex vivo biodistribution, bile", "setting": "[4]; [5]", "result": "250.1 ± 23.97", "unit": "%ID/g"}, {"measurement": "Ex vivo biodistribution, blood", "setting": "[4]; [5]", "result": "3.66 ± 1.55", "unit": "%ID/g"}, {"measurement": "Ex vivo biodistribution, kidney", "setting": "[4]; [5]", "result": "1.99 ± 0.49", "unit": "%ID/g"}, {"measurement": "Ex vivo biodistribution, stomach", "setting": "[4]; [5]", "result": "3.082 ± 0.7135", "unit": "%ID/g"}, {"measurement": "Ex vivo biodistribution, faeces", "setting": "[4]; n = 5", "result": 3.149, "unit": "%ID/g"}, {"measurement": "Ex vivo biodistribution, heart", "setting": "[4]; n = 5", "result": 1.394, "unit": "%ID/g"}, {"measurement": "Ex vivo biodistribution, lung", "setting": "[4]; n = 5", "result": 0.5568, "unit": "%ID/g"}, {"measurement": "Ex vivo biodistribution, muscle", "setting": "[4]; n = 5", "result": 0.9318, "unit": "%ID/g"}, {"measurement": "Ex vivo biodistribution, spleen", "setting": "[4]; n = 5", "result": 1.504, "unit": "%ID/g"}, {"measurement": "Ex vivo biodistribution, whole brain", "setting": "[4]; n = 5", "result": 0.6362, "unit": "%ID/g"}]}
